Test results: PubChem BioAssay (NCI)
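Exposure lasted 48 hours, with cells grown in 96-well plates and compounds tested at five concentrations. GI50 is the concentration that inhibits growth by half. TGI denotes the concentration required for complete inhibition of growth.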

Legend:
Test in all cases: DTP human tumour cell line panel, 48 h
[1] = test system: NCI-H460 lung
[2] = test system: MCF7 breast
[3] = test system: SNB-75 CNS
[4] = test system: NCI-H23 lung
[5] = test system: OVCAR-8 ovarian
[6] = test system: SK-OV-3 ovarian
[7] = test system: CCRF-CEM leukemia
[8] = test system: SK-MEL-28 melanoma
[9] = test system: HOP-92 NSCLC
[10] = test system: U251 CNS
[11] = test system: HOP-62 NSCLC
[12] = test system: OVCAR-4 ovarian
[13] = test system: A549 NSCLC
[14] = test system: UACC-62 melanoma
[15] = test system: COLO 205 colon
[16] = test system: SF-268 CNS
[17] = test system: HL-60(TB) leukemia
[18] = test system: UACC-257 melanoma
[19] = test system: EKVX NSCLC
[20] = test system: RPMI-8226 leukemia
[21] = test system: M14 melanoma
[22] = test system: A498 renal
[23] = test system: PC-3 prostate
[24] = test system: HCC-2998 colon
[25] = test system: K-562 leukemia
[26] = test system: 786-0 renal
[27] = test system: SF-539 CNS
[28] = test system: T-47D breast
[29] = test system: TK-10 renal
[30] = test system: SF-295 CNS
[31] = test system: IGROV1 ovarian
[32] = test system: CAKI-1 renal
[33] = test system: NCI-H522 lung
[34] = test system: HCT-116 colon
[35] = test system: ACHN renal
[36] = test system: BT-549 breast
[37] = test system: SR leukemia
[38] = test system: MDA-MB-231 breast
[39] = test system: SN12C renal
[40] = test system: NCI/ADR-RES ovarian
[41] = test system: RXF 393 renal
[42] = test system: OVCAR-5 ovarian
[43] = test system: SK-MEL-5 melanoma
[44] = test system: DU-145 prostate
[45] = test system: SK-MEL-2 melanoma
[46] = test system: NCI-H226 lung
[47] = test system: HS 578T breast
[48] = test system: MALME-3M melanoma
[49] = test system: LOX IMVI melanoma
[50] = test system: KM12 colon
[51] = test system: SW-620 colon
[52] = test system: UO-31 renal
[53] = test system: SNB-19 CNS
[54] = test system: MDA-MB-435
[55] = test system: HT29 colon
[56] = test system: HCT-15 colon
[57] = test system: MOLT-4 leukemia

How did the GI50 [1] turn out when `COc1ccccc1/C=C/C=N/NC1=NC2C(S1)N(C)C(=O)N2c1ccccc1` (centres undefined) was run?
Its GI50 is 0.349 µM.

And the TGI [1]?
Its TGI is 11 µM.

What about the GI50 [2] of the same compound?
Its GI50 is 0.385 µM.

What about the TGI [2] of the same compound?
The TGI was over 100 µM.

What about the GI50 [3] of the same compound?
The GI50 was 0.419 µM.

What about the TGI [3] of the same compound?
The TGI was over 53.1 µM.

What about the GI50 [4] of the same compound?
The GI50 was 0.474 µM.

What about the TGI [4] of the same compound?
Its TGI is over 100 µM.

What about the GI50 [5] of the same compound?
The GI50 was 0.357 µM.

And the TGI [5]?
The TGI was 2.23 µM.

What about the GI50 [6] of the same compound?
Its GI50 is 0.51 µM.

And the TGI [6]?
The TGI was over 44.8 µM.

And the GI50 [7]?
Its GI50 is 0.408 µM.

And the TGI [7]?
The TGI was over 78.8 µM.

What about the GI50 [8] of the same compound?
Its GI50 is 11.8 µM.

And the TGI [8]?
Its TGI is 42.2 µM.

What about the GI50 [9] of the same compound?
The GI50 was 0.202 µM.

And the TGI [9]?
Its TGI is 1.28 µM.

What about the GI50 [10] of the same compound?
Its GI50 is 0.387 µM.

What about the TGI [10] of the same compound?
Its TGI is 6.28 µM.

What about the GI50 [11] of the same compound?
The GI50 was 0.573 µM.

What about the TGI [11] of the same compound?
Its TGI is 24.7 µM.

What about the GI50 [12] of the same compound?
Its GI50 is 5.23 µM.

What about the TGI [12] of the same compound?
The TGI was over 100 µM.

And the GI50 [13]?
The GI50 was 0.485 µM.

What about the TGI [13] of the same compound?
The TGI was over 100 µM.

What about the GI50 [14] of the same compound?
Its GI50 is 0.456 µM.

And the TGI [14]?
Its TGI is 37 µM.

What about the GI50 [15] of the same compound?
Its GI50 is 0.23 µM.

What about the TGI [15] of the same compound?
The TGI was 0.487 µM.

And the GI50 [16]?
Its GI50 is 1.69 µM.

What about the TGI [16] of the same compound?
Its TGI is 37.2 µM.

What about the GI50 [17] of the same compound?
Its GI50 is 0.294 µM.

And the TGI [17]?
The TGI was over 31.9 µM.

What about the GI50 [18] of the same compound?
The GI50 was 2.18 µM.

And the TGI [18]?
The TGI was 34.5 µM.

What about the GI50 [19] of the same compound?
The GI50 was 0.729 µM.

What about the TGI [19] of the same compound?
The TGI was over 100 µM.

And the GI50 [20]?
The GI50 was 0.396 µM.

What about the TGI [20] of the same compound?
The TGI was 11.2 µM.

What about the GI50 [21] of the same compound?
Its GI50 is 0.333 µM.

And the TGI [21]?
The TGI was 2.34 µM.

And the GI50 [22]?
Its GI50 is 0.251 µM.

What about the TGI [22] of the same compound?
The TGI was 0.73 µM.

What about the GI50 [23] of the same compound?
Its GI50 is 0.435 µM.

What about the TGI [23] of the same compound?
The TGI was 19.6 µM.

What about the GI50 [24] of the same compound?
The GI50 was 0.377 µM.

What about the TGI [24] of the same compound?
Its TGI is 11.6 µM.

What about the GI50 [25] of the same compound?
Its GI50 is 0.383 µM.

What about the TGI [25] of the same compound?
The TGI was over 100 µM.

What about the GI50 [26] of the same compound?
Its GI50 is 0.642 µM.

What about the TGI [26] of the same compound?
The TGI was 13.8 µM.

And the GI50 [27]?
The GI50 was 0.292 µM.

What about the TGI [27] of the same compound?
The TGI was 0.867 µM.

And the GI50 [28]?
The GI50 was 4.04 µM.

What about the TGI [28] of the same compound?
Its TGI is over 79.3 µM.

What about the GI50 [29] of the same compound?
The GI50 was 11.4 µM.

What about the TGI [29] of the same compound?
Its TGI is over 70.9 µM.

What about the GI50 [30] of the same compound?
The GI50 was 0.336 µM.

What about the TGI [30] of the same compound?
Its TGI is 99.2 µM.

What about the GI50 [31] of the same compound?
Its GI50 is 0.601 µM.

What about the TGI [31] of the same compound?
The TGI was 26.3 µM.

And the GI50 [32]?
Its GI50 is 0.562 µM.

What about the TGI [32] of the same compound?
Its TGI is 37.8 µM.

And the GI50 [33]?
The GI50 was 0.21 µM.

What about the TGI [33] of the same compound?
The TGI was 0.575 µM.

What about the GI50 [34] of the same compound?
Its GI50 is 0.353 µM.

And the TGI [34]?
Its TGI is 5.19 µM.

And the GI50 [35]?
Its GI50 is 0.692 µM.

What about the TGI [35] of the same compound?
Its TGI is over 48.4 µM.

And the GI50 [36]?
The GI50 was 0.264 µM.

What about the TGI [36] of the same compound?
Its TGI is 0.653 µM.

And the GI50 [37]?
The GI50 was 0.343 µM.

And the TGI [37]?
Its TGI is over 46.8 µM.

What about the GI50 [38] of the same compound?
Its GI50 is 0.588 µM.

What about the TGI [38] of the same compound?
The TGI was 20.9 µM.

And the GI50 [39]?
Its GI50 is 0.617 µM.

And the TGI [39]?
The TGI was 29 µM.

What about the GI50 [40] of the same compound?
The GI50 was 0.359 µM.

And the TGI [40]?
Its TGI is over 100 µM.

What about the GI50 [41] of the same compound?
The GI50 was 0.312 µM.

And the TGI [41]?
Its TGI is 3.36 µM.

And the GI50 [42]?
Its GI50 is 0.69 µM.

What about the TGI [42] of the same compound?
Its TGI is over 100 µM.

And the GI50 [43]?
The GI50 was 0.545 µM.

What about the TGI [43] of the same compound?
Its TGI is 5.27 µM.

And the GI50 [44]?
The GI50 was 0.471 µM.

And the TGI [44]?
The TGI was over 100 µM.

What about the GI50 [45] of the same compound?
Its GI50 is 0.449 µM.

And the TGI [45]?
The TGI was 15.3 µM.

What about the GI50 [46] of the same compound?
Its GI50 is 0.572 µM.

What about the TGI [46] of the same compound?
The TGI was over 47.9 µM.

What about the GI50 [47] of the same compound?
Its GI50 is 0.356 µM.

And the TGI [47]?
The TGI was 25.5 µM.

What about the GI50 [48] of the same compound?
Its GI50 is 2.68 µM.

What about the TGI [48] of the same compound?
The TGI was 29 µM.

And the GI50 [49]?
Its GI50 is 0.458 µM.

What about the TGI [49] of the same compound?
Its TGI is 12.5 µM.

What about the GI50 [50] of the same compound?
The GI50 was 0.4 µM.

And the TGI [50]?
Its TGI is over 37.1 µM.

And the GI50 [51]?
The GI50 was 0.403 µM.

What about the TGI [51] of the same compound?
The TGI was 18.9 µM.

What about the GI50 [52] of the same compound?
The GI50 was 0.799 µM.

What about the TGI [52] of the same compound?
Its TGI is over 55.6 µM.

And the GI50 [53]?
Its GI50 is 0.455 µM.

What about the TGI [53] of the same compound?
Its TGI is over 93.4 µM.

And the GI50 [54]?
Its GI50 is 0.25 µM.

What about the TGI [54] of the same compound?
The TGI was 0.636 µM.

And the GI50 [55]?
The GI50 was 0.332 µM.

And the TGI [55]?
The TGI was 1.49 µM.

What about the GI50 [56] of the same compound?
Its GI50 is 0.371 µM.

What about the TGI [56] of the same compound?
Its TGI is 23.1 µM.

What about the GI50 [57] of the same compound?
The GI50 was 0.404 µM.

And the TGI [57]?
The TGI was over 100 µM.

Which GI50 [6] does the source give for `N#Cc1c(-c2ccc(Cl)cc2)nc(SCc2ccc([N+](=O)[O-])cc2)nc1N1CCNCC1` here?
Its GI50 is 1.78 µM.

What about the TGI [6] of the same compound?
Its TGI is 3.2 µM.

And the GI50 [8]?
The GI50 was 1.64 µM.

And the TGI [8]?
Its TGI is 3.02 µM.

And the GI50 [14]?
The GI50 was 1.69 µM.

And the TGI [14]?
Its TGI is 3.11 µM.

And the GI50 [18]?
The GI50 was 1.62 µM.

What about the TGI [18] of the same compound?
Its TGI is 3.06 µM.

And the GI50 [22]?
Its GI50 is 1.56 µM.

And the TGI [22]?
Its TGI is 2.98 µM.

And the GI50 [29]?
The GI50 was 1.56 µM.

And the TGI [29]?
Its TGI is 2.96 µM.

What about the GI50 [30] of the same compound?
Its GI50 is 1.78 µM.

What about the TGI [30] of the same compound?
Its TGI is 3.21 µM.

And the GI50 [32]?
Its GI50 is 1.55 µM.

And the TGI [32]?
The TGI was 2.9 µM.

What about the GI50 [39] of the same compound?
Its GI50 is 1.77 µM.

What about the TGI [39] of the same compound?
The TGI was 3.26 µM.

And the GI50 [41]?
Its GI50 is 1.54 µM.

What about the TGI [41] of the same compound?
The TGI was 2.97 µM.

And the GI50 [42]?
The GI50 was 1.56 µM.

What about the TGI [42] of the same compound?
The TGI was 2.98 µM.

What about the GI50 [43] of the same compound?
Its GI50 is 1.68 µM.

What about the TGI [43] of the same compound?
Its TGI is 3.06 µM.

What about the GI50 [44] of the same compound?
Its GI50 is 1.73 µM.

And the TGI [44]?
The TGI was 3.11 µM.

And the GI50 [45]?
Its GI50 is 1.61 µM.

And the TGI [45]?
Its TGI is 3.05 µM.

What about the GI50 [52] of the same compound?
The GI50 was 1.32 µM.

And the TGI [52]?
The TGI was 2.59 µM.
